# Several values for one entry are separate records, joined by “and”; a condition that tells them apart may be missing. Identical values can stand only once. Like-named read-outs stand apart in the source and are kept apart here.
# Tests used:
# [1] = Single dose pharmacokinetics study, oral and intravenous, blood and urine; assay type: in vivo; settings: mouse; for Cmax: read-out: Co/Cmax
# Protocol: ICR breed Mice (CD-1® IGS mice) were used in these studies and was supplied by Charles River (Margate UK) and. The mice were allowed to acclimatise for at least 7 days before starting the study. Treatments was administered by oral route or intravenous route according to the table below. For the PK study, 12 mice for each compound for oral route and 12 mice per compound for the intravenous route was treated. Mice was sequentially bled from a caudal vein into a 20 μL capillary (by agreement containing an anticoagulant) at different time as indicated in table below and a terminal bleed by cardiac puncture at 8 h after administration. Samples collected by capillary was directly transferred into a 96 well and mixed with 20 μL of water, then frozen and store at −80° C. until bioanalysis. Mice for urine collection was housed singly in metabolic cages and urine collected at 0-1, 1-2, 2-4 h and 4-8 h post administration. Urine removed from the collection vessels in the metabolic cages and were frozen and store at −80° C. until bioanalysis. 12 mice were used for urine collection. […] A compound specific LC-MS/MS method was developed for each test compound and samples was quantified using matrix matched calibrators. Samples was prepared for bio-analysis via protein precipitation. Concentration vs time data and non-compartmental analysis was utilised to determine relevant PK parameters e.g. CL, Vss, t1/2, AUCinf AUCo-t, Cmax, tmax, % F, % dose in urine and CLR.
# S. aureus SA 215 = experiment: MIC, MDR strains with target mutations; assay type: cell-based; settings: in µg/mL
# [2] = system: multidrug resistant strains; experiment: Reserpine growth assay in several multidrug resistant strains; assay type: cell-based; settings: FIG. 27
# Protocol: Reserpine was added at a final concentration of 10 g/mL (made up at 40 μg/mL in TSB, 50 μL per well). The bacteria were added at an OD of 0.01 in TSB (100 μL/well). The plate was a normal clear plate as used for MICs. OD was read every 30 minutes for 9 hours (the literature states 7 hours, but this is strain-dependent). Blanks of TSB and water were added to ensure no infections were present.
# S. aureus SA 046 = experiment: MIC, MDR strains with target mutations; assay type: cell-based
# S. aureus SA 105 = assay type: cell-based; settings: in µg/mL
# [3] = system: Staphylococcus aureus ATCC29213; experiment: Murine model of thigh infection (neutropenic ICR mice); settings: for decrease of thigh bacterial burden compared to vehicle group: 8 h and 14 h post infection
# From the text: 40 Male mice used in these study were supplied by Charles River UK and were specific pathogen free. The strain of mouse used was Hsd:ICR (CD-1®), which is a well characterized outbred strain. Mice were 11-15 g on receipt at Evotec's facility and were allowed to acclimatize for minimum of 7 days prior to infection. Mice were approximately 28 g at the start of the study. Mice were housed in sterile individual ventilated cages exposing animals at all times to HEPA filtered sterile air. Mice had free access to food and water (sterile) and had sterile aspen chip bedding. The room temperature was 22° C.±1° C., with a relative humidity of 50-60% and maximum background noise of 56 dB. Mice were exposed to 12 hour light/dark cycles with dawn/dusk phases.
# All mice were rendered neutropenic by immunosuppression with cyclophosphamide at 150 mg/kg 4 days before infection and then 100 mg/kg 1 day before infection administered by intraperitoneal injection. The immunosuppression regime leads to neutropenia starting 24 hours post administration of the first injection, which continues throughout the study. Mice were infected approximately 24 hours after the second dose of immunosuppressive agent.
# Staphylococcus aureus ATCC29213 was used for the study.
# Whilst still under anaesthesia mice were administered a single dose of buprenorphine (0.03 mg/kg) subcutaneously for pain relief.
# Test articles and comparator were prepared in stock solutions at 10× concentration as described in Table 20. The stock solutions were prepared in aliquots (1 aliquot per time of dosing) and frozen at −20° C. The solutions were thawed and then diluted in water just before dosing to obtain the appropriate concentration of 5 mg/mL or 2 mg/mL for oral administration at 10 mL/kg of the dose of 50 mg/kg or 20 mg/kg respectively (Table 20). 10% DMSO in water was used as the vehicle
# After sacrifice of animal, both posterior thighs were removed, weighed, then homogenised in 2 mL PBS using a Precellys bead beater and the homogenates individually quantitatively cultured on CLED agar to determine the bacterial burdens.
# The data from the culture burdens were analysed using appropriate non-parametric statistical models (Kruskal-Wallis using Conover-Inman to make all pairwise comparisons between groups) with StatsDirect software v. 2.7.8., and compared to pre-treatment and vehicle controls.
# S. aureus SA 238 = experiment: MIC, MDR strains with target mutations; assay type: cell-based
# S. aureus SA 282 = experiment: MIC, MDR strains with target mutations; assay type: cell-based
# EMRSA15 = experiment: MIC, microdilution broth method; assay type: cell-based, Staphylococcus aureus; settings: EMRSA15; in µg/mL
# [4] = system: S. aureus SA275 (gyrA, 84: S => L); experiment: MIC, MDR strains with target mutations; assay type: cell-based; settings: Table 11 second entry
# S. aureus SA 275 = experiment: MIC, MDR strains with target mutations; assay type: cell-based; settings: S. aureus SA 275 (gyrA, 84: S => V)
# S. aureus SA 454 = experiment: MIC, MDR strains with target mutations; assay type: cell-based
# EMRSA16 = experiment: MIC, microdilution broth method; assay type: cell-based, Staphylococcus aureus; settings: EMRSA16
# E. faecalis EF 602 = assay type: cell-based
# S. aureus USA300 = experiment: MIC; assay type: cell-based; settings: Staphylococcus aureus
# VRE12201 = experiment: MIC, microdilution broth method; assay type: cell-based, E. faecalis; settings: VRE12201; Gram-positive; in µg/mL
# S. aureus SA 318 = assay type: cell-based
# S. aureus SA 388 = assay type: cell-based
# S. aureus SH1000 = experiment: MIC; assay type: cell-based; settings: Staphylococcus aureus
# E. faecium EF 205 = assay type: cell-based
# [5] = ICR (CD-1 IGS), in vivo, iv, 5 mg/kg
# [6] = ICR (CD-1 IGS), in vivo, po, 20 mg/kg
# [7] = ICR (CD-1 IGS), in vivo, iv, 5.0 mg/kg, blood, Composite Mean
smiles,measurement,setting,value
"C[C@H]1COc2c(N3CC[C@@H](Nc4ncccn4)C3)c(F)cc3c(=O)c(C(=O)O)cn1c23 [KSN-L22, (S)-9-fluoro-3-methyl-7-oxo-10-((R)-3-(pyrimidin-2-ylamino)pyrrolidin-1-yl)-2,3-dihydro-7H-[1,4]oxazino[2,3,4-ij]quinoline-6-carboxylic Acid]",clearance,"[1]; ICR (CD-1 IGS), in vivo, iv, 5.0 mg/kg, blood, Composite Mean, read-out: Blood CL",12.5 mL/min/kg
same,AUC(0-inf),[1]; [5],6690 ng·h/mL
same,AUC(0-inf),[1]; [6],13200 ng·h/mL
same,Bioavailability (%) Using AUCinf,[1]; [6],49.3%
same,Bioavailability (%) Using AUCo. t,[1]; [6],32.0%
same,CL_F,[1]; [6],26.4 mL/min/kg
same,T1/2,"[1]; PO, 20.0 mg/kg, blood, Mean",5.1 h
same,Vdss,"[1]; iv, 5.0 mg/kg, blood, Composite Mean",1.4 L/kg
same,MIC,S. aureus SA 215,1
same,efflux from the bacteria (reserpine growth assay),[2],reduced efflux
same,MIC,S. aureus SA 046,1 µg/mL
same,MIC,S. aureus SA 105,1
same,"thigh bacterial burden, result in words","[3]; 20 and 50 mg/kg, 18 h post infection",statistically significant reduction of bacterial load
same,MIC,S. aureus SA 238,1 µg/mL
same,MIC,S. aureus SA 282,1 µg/mL
same,MIC,EMRSA15,0.5-1
same,MIC,[4],1 µg/mL
same,MIC,S. aureus SA 275,1 µg/mL
same,MIC,S. aureus SA 454,1 µg/mL
same,MIC,EMRSA16,1 µg/mL
"C[C@H]1COc2c(N3CCN(C)CC3)c(F)cc3c(=O)c(C(=O)O)cn1c23 [Levofloxacin, levofloxacin]",Cmax,"[1]; ICR (CD-1 IGS), in vivo, PO, 20.0 mg/kg, blood, Mean",2950 ng/mL
same,half-life,[1]; [7],0.5 h
same,Cmax,[1]; [7],3890 ng/mL
same,AUC,[1]; [5],3090 ng·h/mL and 8.55 µM·h
same,AUC(0-inf),[1]; [5],3310 ng·h/mL and 9.19 µM·h
same,MRT,[1]; [5],3 h
same,Vd,[1]; [5],4.5 L/kg
same,clearance,[1]; [5],25.2 mL/min/kg
same,AUC,[1]; [6],4260 ng·h/mL and 11.8 µM·h
same,AUC(0-inf),[1]; [6],5390 ng·h/mL and 14.9 µM·h
same,Bioavailability (%) Using AUCo. t,[1]; [6],34.5%
same,Tmax,[1]; [6],0.5 h
same,T1/2,"[1]; PO, 20.0 mg/kg, blood, Mean",5.7 h
same,MIC,E. faecalis EF 602,> 32 µg/mL
same,MIC,S. aureus USA300,8 µg/mL
same,MIC,S. aureus SA 215,32 and 16
same,MIC,VRE12201,0.5-1
same,MIC,S. aureus SA 046,16 µg/mL
same,MIC,S. aureus SA 105,8-16
same,MIC,S. aureus SA 318,16 µg/mL
same,MIC,S. aureus SA 388,16 µg/mL
same,MIC,S. aureus SH1000,2 to 4 µg/mL
same,MIC,E. faecium EF 205,> 32 µg/mL
same,decrease of thigh bacterial burden compared to vehicle group,"[3]; 20 mg/kg/dose oral at 2 h, 18 h post infection",~5 log10 CFU/g
same,decrease of thigh bacterial burden compared to vehicle group,"[3]; 50 mg/kg/dose oral at 2 h, 18 h post infection",~5 log10 CFU/g
same,body weights following infection,[3]; in vivo,unchanged
same,"Statistic analysis of thigh burden, P versus ML-83-009 20 mg/kg",[3]; substance at 20 mg/kg,P = 0.0003
same,"Statistic analysis of thigh burden, P versus ML-83-009 50 mg/kg",[3]; substance at 20 mg/kg,P = 0.0058
same,"Statistic analysis of thigh burden, P versus Vehicle",[3]; substance at 20 mg/kg,P < 0.0001
same,"Statistic analysis of thigh burden, P versus ML-83-009 20 mg/kg",[3]; substance at 50 mg/kg,P < 0.0001
same,"Statistic analysis of thigh burden, P versus ML-83-009 50 mg/kg",[3]; substance at 50 mg/kg,P < 0.0001
same,"Statistic analysis of thigh burden, P versus Pre treatment",[3]; substance at 50 mg/kg,P = 0.0084
same,"Statistic analysis of thigh burden, P versus Vehicle",[3]; substance at 50 mg/kg,P < 0.0001
same,MIC,S. aureus SA 238,32 µg/mL
same,MIC,S. aureus SA 454,8 µg/mL
same,MIC,EMRSA16; Gram-positive,16 µg/mL

# From patent US20210261570A1, “ANTIBIOTIC RESISTANCE BREAKERS” (KING'S COLLEGE LONDON, priority 2017, published 2021)
